Results from patent publication US20050003500A1, “(2S, 3S) -2,3-butanediol dehydrogenase” (Daicel Chemical Industries, Ltd., priority 2003, published 2005).

Tested on: (2S,3S)-2,3-butanediol dehydrogenase
Assay: Dehydrogenase (oxidative) activity of the purified enzyme on various substrates, NAD+ as coenzyme
Type: biochemical, Zoogloea ramigera
Conditions: oxidation; substrate 50 mM, standard reaction condition; activity on (2S,3S)-2,3-butanediol taken as 100
Experimental: (§1) React a reaction solution containing 50 mM glycine-sodium hydroxide buffer (pH 11.0), 2.5 mM NAD^+, 50 mM (2S,3S)-2,3-butanediol and the enzyme at 30° C. Then, measure the increase of absorbance at 340 nm relative to the increase of NADH. 1 U is defined as the amount of enzyme that catalyzes a 1-μmol increase of NADH in 1 minute.
The dehydrogenase activity of the enzyme obtained in Example 1 was measured against various substrates (50 mM) under the standard reaction condition.

Molecule | Relative activity (%)
CC(O)C(C)O (stereo not drawn) [meso-2,3-butanediol] | 0
OC[C@@H](O)CCl [(R)-3-chloro-1,2-propanediol] | 3.62
C[C@H](O)CO [(S)-1,2-propanediol] | 55.3
(R)-2-butanol | 1.11
CC(=O)C(C)O (stereo not drawn) [Acetoin] | 0.26
(S)-2-butanol | 43.3
C[C@@H](O)[C@@H](C)O [(2R,3R)-2,3-butanediol] | 2.89
OC[C@H](O)CCl [(S)-3-chloro-1,2-propanediol] | 0
C[C@@H](O)CO [(R)-1,2-propanediol] | 0.90
C[C@H](O)[C@H](C)O [(2S,3S)-2,3-butanediol] | 100

Tested on: (2S,3S)-2,3-butanediol dehydrogenase
Assay: Reductive activity of the purified enzyme on various substrates, NADH as coenzyme
Type: biochemical, Zoogloea ramigera
Conditions: reduction; substrate 50 mM, standard reaction condition; activity on 2,3-butanedione taken as 100
Experimental: React a reaction solution containing 50 mM potassium phosphate buffer (pH 5.5), 0.2 mM NADH, 20 mM 2,3-butanedione and the enzyme at 30° C. Then, measure the decrease of absorbance at 340 nm relative to the decrease of NADH. 1 U is defined as the amount of enzyme that catalyzes a 1-μmol decrease of NADH in 1 minute. The protein can be quantified by a dye binding method using BioRad protein assay kit.
The reductive activity of the enzyme obtained in Example 1 was measured on various substrates (50 mM) under the standard reaction condition.

Molecule | Relative activity (%)
CC(=O)C(C)O (stereo not drawn) [Acetoin] | 58.9
CC(=O)C(C)=O [2,3-Butanedione] | 100

Tested on: (2S,3S)-2,3-butanediol dehydrogenase
Assay: Activation of (2S,3S)-2,3-butanediol dehydrogenase activity by divalent ions
Type: biochemical, Zoogloea ramigera
Conditions: divalent ion 1 mM; activity in the absence of the ions taken as 100
Experimental: as §1
The activation effect by a divalent ion can be measured as described above by adding 1 mM of a metal ion into the above-mentioned reaction solution.

Molecule | Relative activity (%)
[Ca+2] [Ca^2+] | 113
[Cu+2] [Cu^2+] | 107
[Zn+2] [Zn^2+] | 109
[Ni+2] [Ni^2+] | 104
[Co+2] [Co^2+] | 106
[Mn+2] [Mn^2+] | 104
[Ba+2] [Ba^2+] | 112
[Mg+2] [Mg^2+] | 110

Tested on: not listed separately
Assay: (2S,3S)-2,3-butanediol oxidation activity of enzyme preparations from Zoogloea ramigera
Type: biochemical
Conditions: fraction after each purification step
Experimental: as §1
Zoogloea ramigera strain DSM287 was cultured at 28° C. for 54 hours in 1.2 L of YPD medium that uses glycerol as a carbon source, and wet bacterial cells were prepared by centrifugation. Approximately 30 g of the obtained wet bacterial cells were suspended in a 50 mL solution of 50 mM potassium phosphate buffer (pH8.0) and 1 mM 2-mercaptoethanol. The cells were then disrupted using Multi-beads shocker (Yasui Kikai), and bacterial cell debris was removed by centrifugation to obtain cell-free extract. Protamine sulfate was added to this cell-free extract and nucleic acids were removed by centrifugation to yield the supernatant. Ammonium sulfate was added to this supernatant up to 30% saturation, and this was applied onto phenyl-sepharose column (2.6 cm×10 cm) equilibrated with standard buffer (10 mM Tris-HCl buffer (pH8.0) and 0.01% 2-mercaptoethanol) comprising 30% ammonium sulfate. After washing the column with the same buffer, gradient elution was performed with 30% to 0% saturated ammonium sulfate. […]

Molecule | Specific activity (U/mg)
Hydroxyapatite | 60.9

Target: acetoin reductase (Klebsiella pneumoniae, UniProt Q48436)
Assay: not given
Conditions: J. Ferment. Technol. 83, 32-37 (1997); cited from earlier work

acetoin reductase, sequence (Q48436 whole entry): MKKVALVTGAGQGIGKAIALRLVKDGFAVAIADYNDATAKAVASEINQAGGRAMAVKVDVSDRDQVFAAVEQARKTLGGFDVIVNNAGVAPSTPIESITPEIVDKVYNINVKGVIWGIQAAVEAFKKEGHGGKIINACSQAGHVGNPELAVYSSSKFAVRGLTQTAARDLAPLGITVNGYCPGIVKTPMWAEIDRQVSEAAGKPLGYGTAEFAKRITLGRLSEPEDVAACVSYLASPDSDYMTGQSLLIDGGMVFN

Molecule | action of the enzyme on the substrate
CC(O)C(C)O (stereo not drawn) [meso-2,3-butanediol] | specifically act
C[C@H](O)[C@H](C)O [(2S,3S)-2,3-butanediol] | doesnot act

Target: L-2,3-butanediol dehydrogenase (Corynebacterium glutamicum, UniProt Q9ZNN8)
Assay: not given
Conditions: Biosci. Biotechnol. Biochem. 65, 1876-1878 (2001); cited from earlier work

L-2,3-butanediol dehydrogenase, sequence (Q9ZNN8 whole entry): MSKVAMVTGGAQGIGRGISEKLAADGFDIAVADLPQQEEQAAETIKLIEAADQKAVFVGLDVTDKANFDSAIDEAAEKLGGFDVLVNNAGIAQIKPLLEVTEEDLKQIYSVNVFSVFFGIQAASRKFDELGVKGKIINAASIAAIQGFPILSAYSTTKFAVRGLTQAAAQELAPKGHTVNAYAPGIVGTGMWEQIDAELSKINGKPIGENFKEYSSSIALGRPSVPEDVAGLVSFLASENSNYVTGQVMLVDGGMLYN

Molecule | activity of the enzyme towards the substrate
CCC(C)O (stereo not drawn) [2-butanol] | lacks activity
